“And” between values parts separate entries of the source, which are not always exact repeats. Identical values can stand only once.
What was measured:
[1] = target: HIS-Keap1 full length / Biotin-Nrf2 (16-mer) (Homo sapiens, UniProt Q14145); assay: biochemical
[2] = test system: NQO1 activation in BEAS-2B cells; assay: BEAS-2B cellular MTT assay of NQO1 activation, 0.3% HSA; type: cell-based
Outline: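 MTT read-out in BEAS-2B cells grown in BEBM with SingleQuots, no GA-1000, kept below 70% confluence; plates coated with collagen, with 0.3% or 0% HSA medium, seeded to 95-100% confluency at 48 h, 37 °C, 5% CO2.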

[3] = test system: NQO1 activation in BEAS-2B cells; assay: BEAS-2B cellular MTT assay of NQO1 activation, 0% HSA; type: cell-based
Outline: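 For the 0% HSA condition, cells were seeded into collagen plates in HSA-free medium. Culture was BEAS-2B in BEBM plus BEGM SingleQuots lacking GA-1000, held under 70% confluence, at a seeding density reaching 95-100% confluence by 48 h.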

[4] = Homo sapiens, BEAS+ W, read-out: BEAS+ W EC50
[5] = Homo sapiens, Serum Free W, read-out: BEAS EC50 (nM) Serum Free W
[6] = Homo sapiens, BEAS+, read-out: BEAS+ EC50
[7] = Homo sapiens, serum free, read-out: BEAS EC50 (nM) serum free
[8] = serum free, read-out: BEAS EC50 (nM) serum free
[9] = BEAS+ W, read-out: BEAS+ W EC50
[10] = Serum Free W, read-out: BEAS EC50 (nM) Serum Free W

Sequence of HIS-Keap1 full length / Biotin-Nrf2 (16-mer) (Q14145 whole entry): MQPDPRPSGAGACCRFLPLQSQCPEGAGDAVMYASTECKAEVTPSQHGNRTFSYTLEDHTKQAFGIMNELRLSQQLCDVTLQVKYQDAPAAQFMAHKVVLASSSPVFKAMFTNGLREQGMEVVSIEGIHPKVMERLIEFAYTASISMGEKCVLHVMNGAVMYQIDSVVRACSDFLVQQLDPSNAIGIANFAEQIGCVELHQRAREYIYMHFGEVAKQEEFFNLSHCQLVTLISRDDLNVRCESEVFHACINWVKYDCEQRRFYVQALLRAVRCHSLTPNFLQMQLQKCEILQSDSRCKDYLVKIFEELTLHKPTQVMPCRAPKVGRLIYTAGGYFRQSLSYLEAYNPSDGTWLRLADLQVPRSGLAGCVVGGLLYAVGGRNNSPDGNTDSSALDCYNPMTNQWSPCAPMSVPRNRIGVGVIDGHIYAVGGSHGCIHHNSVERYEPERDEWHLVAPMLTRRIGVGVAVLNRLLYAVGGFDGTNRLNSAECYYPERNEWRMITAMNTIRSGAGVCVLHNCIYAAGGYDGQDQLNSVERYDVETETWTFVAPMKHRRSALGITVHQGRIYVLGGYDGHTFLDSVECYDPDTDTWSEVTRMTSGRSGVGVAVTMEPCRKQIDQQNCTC

SMILES	IC50 [1]	EC50 [2, 4] [nM]	EC50 [3, 5] [nM]	EC50 ([2]; BEAS+, read-out: BEAS+ EC50)	EC50 [2, 6] [nM]	EC50 [3, 7] [nM]	EC50 [3, 8]	EC50 [2, 9]	EC50 [3, 10]
O=C(O)C[C@H]1c2cnc(nc2)OCCCCCc2c(F)c(F)c(c(F)c2F)C(=O)N2CCc3ccc1cc3C2 [Compound 45]	229 nM and 244 nM	> 10000	> 1000						
Cc1cc2ccc1C(=O)N1CCc3ccc(cc3C1)C(CC(=O)O)c1ccc(nc1C)OCCCCC2 (stereo not drawn) [Compound 149]	9.4 nM and 7.4 nM			89.3 nM	103	74.3	67.8 nM		
Cc1c2ccc3c1nnn3CCCCCCc1ccc(c3ncccc13)C(=O)N1CCc3ccc(cc3C1)[C@@H]2CC(=O)O [Compound 50]	0.2 nM and 0.3 nM	89.7	57.3					138 nM	47.6 nM
Cc1cc2ccc1C(=O)N1CCc3ccc(cc3C1)[C@H](CC(=O)O)c1cnc(cc1C)OCCCCC2 [Compound 99]	8.8 nM and 8.4 nM	108	23.9					79 nM	25.6 nM
O=C(O)CC1c2ccc(nc2)OCCCCOc2ccc(cc2Cl)C(=O)N2CCc3ccc1cc3C2 (stereo not drawn) [Compound 212]	7.7 nM and 5.7 nM			811 nM	606	190	254 nM		
Cc1c2cnc3c1nnn3CCCCCCOc1cc(F)c(c(F)c1)C(=O)N1CCc3ccc(cc3C1)[C@H]2CC(=O)O [Compound 208]	1.1 nM	25.1	10.1					27.2 nM	14.9 nM
Cc1cc2ccc1OCCCCCCn1nnc3c(C)c(ccc31)C(CC(=O)O)c1ccc3c(c1)CN(CC3)C2=O (stereo not drawn) [Compound 260]	6 nM			484 nM	337	400	403 nM		
Cc1cc2ncc1C(CC(=O)O)c1ccc3c(c1)CN(CC3)C(=O)c1ccc(cc1)OCCCCO2 (stereo not drawn) [Compound 169]	68.9 nM and 66.2 nM			175 nM	155	84.4	55.9 nM		
Cc1c2ccc3c1nnn3CCCCc1ccc3c(cn(C)c3c1)C(=O)N1CCc3ccc(cc3C1)C2CC(=O)O (stereo not drawn) [Compound 359]	7.4 nM and 8.1 nM	> 10000	> 1000						
Cc1c2ccc3c1nnn3CCCCCCOc1ccc(cc1)C(=O)N1CCc3ccc(cc3C1)[C@H]2[C@H](C)C(=O)O [Compound 159]	6.9 nM and 7.2 nM			480 nM	461	113	122 nM		
Cc1c2cnc3c1nnn3CCCCCCCc1ccc(cc1)C(=O)N1CCc3ccc(cc3C1)[C@H]2CC(=O)O [Compound 67]	14 nM and 14.5 nM	159	23					166 nM	23.5 nM
O=C(O)CC1c2ccc3c(c2)CN(CC3)C(=O)c2ccc(c3ccccc23)OCCCCCn2nnc3cc1ccc32 (stereo not drawn) [Compound 337]	0.7 nM and 0.8 nM				2540	1890			
Cc1c2ccc3c1nnn3CCCCCCc1ccc(cc1)C(=O)N1CCc3ccc(cc3C1)[C@H]2CC(=O)O [Compound 202]	7.2 nM and 6.8 nM and 7.1 nM			298 nM and 338 nM	200	58.2	55.5 nM and 69.1 nM		
Cc1c2ccc3c1nnn3C/C=C/COCc1ccc(c(F)c1)C(=O)N1CCc3ccc(cc3C1)C2CC(=O)OCCO (stereo not drawn) [Compound 361]	918 nM and 740 nM	1660	> 1000					1280 nM	
Cc1cc2ccc1C(=O)N1CCc3ccc(cc3C1)[C@@H](CC(=O)O)c1cnc(cc1C)OCCCCC2 [Compound 100]	1.1 nM and 1 nM	8	1.7					9.1 nM	1.6 nM
Cc1nc2ccc1C(CC(=O)O)c1ccc3c(c1)CN(CC3)C(=O)c1c(F)cc(cc1F)OCCCCO2 (stereo not drawn) [Compound 180]	253 nM and 296 nM			1000 nM	1300	701	878 nM		
Cc1c2cnc3c1nnn3CCCCCCc1ccc3c(c1)cc(n3C)C(=O)N1CCc3ccc(cc3C1)C2CC(=O)O (stereo not drawn) [Compound 135]	0.9 nM and 1.2 nM	18.9	1.9					11.8 nM	1.8 nM
COc1cc2ccc1C(=O)N1CCc3ccc(cc3C1)[C@@H](CC(=O)O)c1cnc3c(nnn3CCCCC2)c1C [Compound 88]	1 nM and 1.1 nM	88.5	35.3					101 nM	40.4 nM
Cc1c2ccc3c1nnn3CCCCCOc1ccc3ccc(cc3c1)C(=O)N1CCc3ccc(cc3C1)C2CC(=O)O (stereo not drawn) [Compound 388]	1.6 nM			876 nM	464	51.4	44.2 nM		
Cc1c2ccc3c1nnn3CCCOCCOc1cc(F)c(c(F)c1)C(=O)N1CCc3ccc(cc3C1)[C@@H]2[C@H](C)C(=O)O [Compound 366]	5.6 nM and 5.3 nM			1180 nM	1070	580	442 nM		

SMILES	IC50 [1]	EC50 [2, 4] [nM]	EC50 [3, 5] [nM]	EC50 ([2]; BEAS+, read-out: BEAS+ EC50)	EC50 [2, 6] [nM]	EC50 [3, 7] [nM]	EC50 [3, 8]	EC50 [2, 9]	EC50 [3, 10]
Cc1c2ccc3c1nnn3CCOC/C=C/c1ccc(c(F)c1)C(=O)N1CCc3ccc(cc3C1)C2CC(=O)O (stereo not drawn) [Compound 365]	3.4 nM and 3.6 nM	188	90					214 nM	171 nM
Cc1c2ccc3c1nnn3CCCCCn1ccc3ccc(cc31)C(=O)N1CCc3ccc(cc3C1)C2CC(=O)O (stereo not drawn) [Compound 393]	3.8 nM and 4.3 nM			2250 nM	1890	2450	2110 nM		
COc1cc2ccc1CCCCCCn1nnc3c(C)c(cnc31)[C@H](CC(=O)O)c1ccc3c(c1)CN(CC3)C2=O [Compound 95]	1.8 nM and 1.9 nM	92	53.1					124 nM	64.8 nM
Cc1cc2ccc1C(=O)N1CCc3ccc(cc3C1)C(CC(=O)O)c1cnc(nc1C)OCCCCO2 (stereo not drawn) [Compound 195]	62.3 nM and 69.9 nM				> 10000	5570	> 10000 nM		
Cc1c2ccc3c1nnn3CCCCCCOc1ccc(nc1)C(=O)N1CCc3ccc(cc3C1)C2CC(=O)O (stereo not drawn) [Compound 227]	2.1 nM			932 nM	1130	517	568 nM		
Cc1cc2ncc1[C@H]([C@@H](C)C(=O)O)c1ccc3c(c1)CN(CC3)C(=O)c1ccc(cc1)CCCCCO2 [Compound 75]	21.7 nM and 22.7 nM	45.2	9.1					60 nM	16 nM
Cc1c2cnc3c1nnn3CCCCCc1ccc(c(F)c1)C(=O)N1CCc3ccc(cc3C1)C2CC(=O)O (stereo not drawn) [Compound 137]	0.3 nM			2.8 nM	1.9	1.9	1.8 nM		
Cc1c2ccc3c1nnn3CCCCCCc1ccc(cc1OC(F)F)C(=O)N1CCc3ccc(cc3C1)[C@@H]2CC(=O)O [Compound 37]	1 nM and 0.8 nM	100	18.1					72.3 nM	18.2 nM
Cc1c2ccc3c1nnn3CCCCCCc1cc(F)c(c(F)c1)C(=O)N1CCc3ccc(cc3C1)C2CC(=O)O (stereo not drawn) [Compound 253]	1.3 nM				6.6	5.4			
Cc1cc2ncc1[C@H](CC(=O)O)c1ccc3c(c1)CN(CC3)C(=O)c1c(F)cc(cc1F)CCCCCO2 [Compound 120]	0.3 nM and 0.4 nM	7.9	1.4					7.6 nM and 4.6 nM and 6.3 nM	
Cc1c2ccc3c1nnn3CCOCCCc1ccc(c(F)c1)C(=O)N1CCc3ccc(cc3C1)[C@@H]2CC(=O)O [Compound 364]	1.7 nM and 1.6 nM	98.8	56					92.6 nM	68.3 nM
Cc1cc2ncc1[C@@H](CC(=O)O)c1ccc3c(c1)CN(CC3)C(=O)c1ccc(cc1)CCOCCO2 [Compound 351]	649 nM and 619 nM and 401 nM and 416 nM	3740	> 1000					2880 nM and 2800 nM	1780 nM
Cc1c2ccc3c1nnn3CCCCCOc1ccc(cc1F)C(=O)N1CCc3ccc(cc3C1)C2CC(=O)O (stereo not drawn) [Compound 275]	1.9 nM				85.9	123			
Cc1c2ccc3c1nnn3CCCCCCc1ccc(cc1)C(=O)N1CCc3ccc(cc3C1)[C@@H]2[C@H](C)C(=O)O [Compound 175]	10.4 nM and 10.3 nM			125 nM	104	53.3	53.7 nM		
CC(C)(C(=O)O)C1c2ccc3c(c2)CN(CC3)C(=O)c2ccc(cc2F)OCCCCCCn2nnc3cc1ccc32 (stereo not drawn) [Compound 288]	1.8 nM and 2.3 nM				34.3	2.7			
COc1cc2ccc1CCCCCCn1nnc3c(C)c(ccc31)[C@@H](CC(=O)O)c1ccc3c(c1)CN(CC3)C2=O [Compound 101]	2.6 nM and 2.8 nM	34.9	4.7					31 nM	5.1 nM
COc1cc2ccc1C(=O)N1CCc3ccc(cc3C1)[C@H](CC(=O)O)c1cnc3c(nnn3CCCCCC2)c1C [Compound 94]	1.1 nM and 1.3 nM	51	36.8					52.3 nM	63.2 nM
Cc1c2ccc3c1nnn3CCCCCCc1ccc3c(c1)cc(n3CC(F)F)C(=O)N1CCc3ccc(cc3C1)[C@@H]2CC(=O)O [Compound 39]	1 nM and 1.1 nM	492	5.9					531 nM and 590 nM	4.2 nM and 4.3 nM
Cc1cc2ccc1C(=O)N1CCc3ccc(cc3C1)C(CC(=O)O)c1ccc(nc1)OCCCCO2 (stereo not drawn) [Compound 209]	0.4 nM and 0.5 nM			903 nM	843	469	494 nM		

— US12692274B2, “Tetrahydroisoquinoline derivatives for the treatment of red blood disorders and inflammatory diseases” (Sanofi, priority 2020, dated 2026)
